Reference: PMC10811918, “Mechanisms of Bushen Tiaoxue Granules against controlled ovarian hyperstimulation-induced abnormal morphology of endometrium based on network pharmacology” (Journal of Ovarian Research, 2024)
Where two headings read alike, the source gives them in different places.

How the values were obtained:
[1] = tested on: Human endometrial stromal cells (hESC); test: Cytotoxicity on hESC (CCK8 cell viability); format: cell-based; conditions: for IC50: read-out: IC50 (inhibition of hESC proliferation)
Experimental: Human endometrial stromal cells (hESC) were obtained from the Meisen Chinese Tissue Culture Collections (Zhejiang, China). The basal culture medium for hESC comprised DMEM/F12 supplemented with 10% fetal bovine serum (FBS) and 1% penicillin–streptomycin. The culture environment was maintained at 5% CO2 and 37 °C. […] Six gradients of concentrations were established to determine the IC50 of these compounds.
(§1) D-Galactose (D-Gal) was procured from Solabio Company (Beijing, China) and prepared in DMEM/F12 at a concentration of 200 mM as the modeling drug. hESC were uniformly seeded at 4 × 10^3 cells/well in a 96-well plate with 6 replicates per group, while wells treated only with basal culture medium served as the control group. Following cell adhesion, a 24-h intervention with 200 mM D-Gal was administered, followed by a 24-h culture with the appropriate concentration of natural product selected from the screening. CCK8 solution (Solabio, Beijing, China) was added to the wells and incubated in the culture chamber for 2 h, and absorbance was recorded at 450 nm using a microplate reader (Bio-Rad, USA).
All data in this study were analyzed by SPSS 22.0 software, and the results were presented as mean ± SEM. The one-way ANOVA, followed with Turkey’s test was performed for multiple comparison. p value < 0.05 was considered statistically significant. GraphPad Prism is utilized for calculating IC50 values and organizing graphs.
Previous studies have identified an increased senescent phenotype in endometrial stromal cells post COH, which is unfavorable for decidualization during embryo implantation. D-Gal is a widely recognized mimetic agent causing oxidative stress damage and promoting aging.

mouse embryos = tested on: mouse embryos; set-up: method as in PMID 25896022; conditions: cited from earlier work
[2] = tested on: hESC with D-Gal-induced damage; test: Protection against D-Gal-induced damage in hESC (CCK-8); format: cell-based, Human; conditions: 200 mM D-Gal 24 h, then compound 24 h at two concentrations: quercetin 50/25 μM, taxifolin 260/130 μM, kaempferol 400/200 μM, eriodictyol 230/115 μM, isorhamnetin 500/250 μM
Experimental: as §1
Cell viability was assessed using CCK-8 assay (Fig. 10A).

[3] = Blood drug concentration of kaempferol following BTG administration; format: in vivo, rat; conditions: rats, BTG 3.27 g/kg oral gavage for 3 days, sampling 10 min to 12 h
Text: Supplementary file 13048_2023_1339_MOESM1_ESM.pdf: Additional file 1: Table S1. Composition of the BTG. Table S2. Identification of chemical components in BTG. Table S3. Affinity of ingredients with potential targets. Figure S1. […] Upon usage, it was sequentially diluted to obtain concentration gradient solutions. Utilizing the same 50 female SD rats as employed in the in vivo experiment, two rats constituted the blank control group, while the remaining 48 rats were divided into treatment groups, each consisting of 6 rats. […] The blood samples were centrifuged at 4°C, 3500 rpm for 10 min, and the supernatant was analyzed. Following the UPLC-MS analysis method described earlier, the peak areas of the analyte and internal standard were recorded to calculate the blood drug concentrations at each time point. […] The serum levels of (A) ALT, (B) AST, (C) CREA, (D) UA, and (E) UREA in each group of rats were measured using microplate assays. […]
stock solution of 200 μg/mL for the mixed control solution. […] The blood samples were centrifuged at 4°C, 3500 rpm for 10 min, and the supernatant was analyzed. Following the UPLC-MS analysis method described earlier, the peak areas of the analyte and internal standard were recorded to calculate the blood drug concentrations at each time point. […]

[4] = cited from earlier work
mice = conditions: dose higher than 800 μg; cited from earlier work
[5] = hESC, six concentration gradients

## O=C[C@H](O)[C@@H](O)[C@@H](O)[C@H](O)CO [D-Gal, D-Galactose, reference compound]
[1]; hESCs, 200 mM, read-out: inhibition of cell proliferation
  inhibition at 200000 µM: ~50%

## O=C(O)[C@H]1O[C@@H](Oc2cc3oc(-c4ccccc4)cc(=O)c3c(O)c2O)[C@H](O)[C@@H](O)[C@@H]1O [baicalin]
Mouse embryos
  adhesion rate and implantation rate of mouse embryos: increase

## O=C1C[C@@H](c2ccc(O)c(O)c2)Oc2cc(O)cc(O)c21 [eriodictyol]
[1]; [5]
  IC50: 233 µM
[2]
  improvement of cellular viability damage caused by D-Gal: effective improvement

## COc1cc(-c2oc3cc(O)cc(O)c3c(=O)c2O)ccc1O [isorhamnetin]
[1]; [5]
  IC50: > 500 µM
[2]
  improvement of cellular viability damage caused by D-Gal: failed to effectively ameliorate

## O=c1c(O)c(-c2ccc(O)cc2)oc2cc(O)cc(O)c12 [kaempferol]
[1]
  IC50: 399 µM
[2]
  improvement of cellular viability damage caused by D-Gal: effective improvement
[3]
  kaempferol concentration in the blood following BTG administration: sustained detectable concentrations even at 8 h
[4]
  oral bioavailability: 41.88%

## CS(=O)(=O)Nc1ccc([N+](=O)[O-])cc1Oc1ccccc1 [nimesulide]
mice
  implantation sites: reduced

## O=c1c(O)c(-c2ccc(O)c(O)c2)oc2cc(O)cc(O)c12 [quercetin]
[1]
  IC50: 45.4 µM
[2]
  improvement of cellular viability damage caused by D-Gal: failed to effectively ameliorate
[4]
  oral bioavailability: 46.43%

## O=C1c2c(O)cc(O)cc2OC(c2ccc(O)c(O)c2)C1O (stereo not shown) [taxifolin]
[1]; [5]
  IC50: 263 µM
[2]
  improvement of cellular viability damage caused by D-Gal: effective improvement
